For this test, the system named is human colonic epithelium (monolayer from human colonic stem cells). The experiment in a line: VIP-stimulated water secretion into the apical reservoir under ALI culture. It counts as cell-based. On the procedure: The inserts were rinsed with PBS×1 prior to cell plating. Intestinal epithelial cells were passaged according to the procedure described above except that the cells were suspended in expansion medium (EM-Table 1) and plated directly onto the top compartment of Transwell inserts. Cells from 1 well of the 6-well plate were dispersed into 6 separate 12-well Transwell inserts (1 mL in the upper [apical] reservoir, and 2 mL in the lower [basal] reservoir). The medium was exchanged every 48 h. To induce cell differentiation and mucus production, the medium was switched to differentiation medium (DM-Table 1) after 5 days. In the submerged culture, 1 mL DM was added in the apical reservoir and 2 mL in the basal reservoir. The medium was exchanged every 48 h thereafter. In the ALI culture, the medium in the apical reservoir was completely aspirated, 1 mL DM or DM-VIP (DM containing 330 ng/mL VIP [AnaSpec, #AS-22872]) was added to the basal reservoir, and medium was exchanged every 24 h thereafter. By day 10, the system was suitable for characterization and cytokine assay.
To verify the function of VIP to stimulate water secretion, human colonic stem cells were cultured under EM for 5 days. At day 5, the basal medium was switched to DM with varying VIP concentration and the cells placed under the ALI culture conditions. After 24 h, the water accumulated in the apical reservoir was collected and weighed with an analytical balance. In the absence of VIP, the accumulation of water in the apical reservoir was not measurable. […] A plateau was reached when VIP concentration was >1 ng/mL. At this saturating concentration, approximately 42 mg/cm^2 water accumulated after a 24 h incubation with VIP, corresponding to a water depth in the reservoir of 420 μm.

The record followed here is US12410391B2, “In vitro cell culture mucus systems” (The University of North Carolina at Chapel Hill, priority 2018, dated 2025).

Bounds are passed on as bounds.

For the substance vasoactive intestinal peptide [VIP], the “VIP concentration at which plateau of water secretion was reached” value (ALI culture, 24 h) is given as more than 1 ng/mL. Also, the “water accumulated in apical reservoir” value (saturating VIP concentration, 24 h incubation) is on record as “approximately 42 mg/cm^2”. Further, the “water depth in the reservoir” value (saturating VIP concentration, 24 h incubation, corresponds to the accumulated water) is recorded as 420 μm.
